In general, MIC refers to the lowest concentration found to suppress growth.

A short description of the experiment: MIC of the examples against various organisms. It is filed as cell-based. The note with it: against at least two of the above organisms (12-strain panel). As for the experimental part:
The MIC (μg/ml) of the examples against various organisms was determined: A. baumannii ATCC19606, E. cloacae ATCC23355, E. coli ATCC25922, K. pneumoniae ATCC27736, P. mirabilis ATCC29906, P. aeruginosa ATCC27853, S. maltophilia ATCC13637, S. aureus ATCC43300, S. epidermidis ATCC14990, S. haemolyticus ATCC29970, E. faecalis ATCC29212 and E. faecium ATC19434.
Consider `COc1cnc2cccc(C(O)CN3C4CCC3CC(NCc3cc5c(cc3F)SCC(=O)N5)C4)c2n1` (stereo not shown) [Example 84, 7-Fluoro-6-({8-[2-hydroxy-2-(3-methoxy-quinoxalin-5-yl)-ethyl]-8-aza-bicyclo[3.2.1]oct-3-ylamino}-methyl)-4H-benzo[1,4]thiazin-3-one], for which the MIC is at most 2 µg/mL.
With `COc1ccc2cccc(NC(=O)C3CCCC(CNCc4cc5c(cn4)OCCO5)C3)c2n1` (stereo not shown) [Example 111, 3-{[(2,3-Dihydro-[1,4]dioxino[2,3-c]pyridin-7-ylmethyl)-amino]-methyl}-cyclohexanecarboxylic acid (2-methoxy-quinolin-8-yl)-amide] the figure was at most 2 µg/mL; with `COc1ccc2nccc(NC(=O)C3CCCC(CNCc4ccc5c(n4)NC(=O)CS5)C3)c2n1` (stereo not shown) [Example 17, 3-{[(3-Oxo-3,4-dihydro-2H-pyrido[3,2-b][1,4]thiazin-6-ylmethyl)-amino]-methyl}-cyclohexanecarboxylic acid (6-methoxy-[1,5]-naphthyridin-4-yl)-amide], at most 2 µg/mL.
Regarding `COc1ccc2ncc(Cl)c(C(O)CN3CCCC(CNCc4ccc5nsnc5c4)C3)c2c1` (single isomer, unassigned) [Example 70, 2-(3-{[(Benzo[1,2,5]thiadiazol-5-ylmethyl)-amino]-methyl}-piperidin-1-yl)-1-(3-chloro-6-methoxy-quinolin-4-yl)-ethanol], the minimal inhibitory concentration (MIC) was at most 2 µg/mL.
Take `COc1ccc2ncc(Cl)c(C(O)CN3C4CCC3CC(NCc3ccc5nonc5c3)C4)c2c1` (single isomer, unassigned) [Example 59, 2-{3-[(Benzo[1,2,5]oxadiazol-5-ylmethyl)-amino]-8-aza-bicyclo[3.2.1]oct-8-yl}-1-(3-chloro-6-methoxy-quinolin-4-yl)-ethanol]: the MIC is at most 2 µg/mL.
Under `COc1cnc2ccc(Cl)c(C(O)CN3CCCC(CNCc4ccc5c(c4)OCCO5)C3)c2n1` (stereo not shown) [Example 95, 1-(6-Chloro-3-methoxy-quinoxalin-5-yl)-2-(3-{[(2,3-dihydro-benzo[1,4]dioxin-6-ylmethyl)-amino]-methyl}-piperidin-1-yl)-ethanol] stands at most 2 µg/mL; under `COc1ccc2nccc(C(O)CN3CCOC(CNCc4ccc5c(c4)NC(=O)CO5)C3)c2n1` (stereo not shown) [Example 34, 6-[({4-[2-Hydroxy-2-(6-methoxy-[1,5]naphthyridin-4-yl)-ethyl]-morpholin-2-ylmethyl}amino)-methyl]-4H-benzo[1,4]oxazin-3-one], at most 2 µg/mL; under `COc1ccc2ncc(Cl)c(C(O)CN3C4CCC3CC(NCc3cc5c(cc3F)SCC(=O)N5)C4)c2c1` (single isomer, unassigned) [Example 60, 6-({8-[2-(3-Chloro-6-methoxy-quinolin-4-yl)-2-hydroxy-ethyl]-8-aza-bicyclo[3.2.1]oct-3-ylamino}-methyl)-7-fluoro-4H-benzo[1,4]thiazin-3-one], at most 2 µg/mL.
As to `COc1ccc2nccc(C(O)CN3C4CCC3CC(NCc3ccc5c(c3)NC(=O)CS5)C4)c2n1` (single isomer, unassigned) [Example 13, 6-({8-[2-Hydroxy-2-(6-methoxy-[1,5]-naphthyridin-4-yl)-ethyl]-8-aza-bicyclo[3.2.1]oct-3-ylamino}-methyl)-4H-benzo[1,4]thiazin-3-one], the MIC is at most 2 µg/mL.
Turning to `COc1ccc2ncc(Cl)c(C(O)CN3CCCC(CNCc4cc5c(cc4F)SCC(=O)N5)C3)c2c1` (single isomer, unassigned) [Example 67, 6-[({1-[2-(3-Chloro-6-methoxy-quinolin-4-yl)-2-hydroxy-ethyl]-piperidin-3-ylmethyl}-amino)-methyl]-7-fluoro-4H-benzo[1,4]thiazin-3-one], the MIC is at most 2 µg/mL.
With `COc1ccc2ncc(Cl)c(C(O)CN3C4CCC3CC(NCc3ccc5c(c3)OCCO5)C4)c2n1` (stereo not shown) [Example 25, 1-(3-Chloro-6-methoxy-[1,5]-naphthyridin-4-yl)-2-{3-[(2,3-dihydro-benzo[1,4]dioxin-6-ylmethyl)-amino]-8-aza-bicyclo[3.2.1]oct-8-yl}-ethanol] the figure was at most 2 µg/mL; with `COc1ccc2cccc(NC(=O)C3CCCC(CNCc4ccc5c(c4)OCCO5)C3)c2n1` (stereo not shown) [Example 110, 3-{[(2,3-Dihydro-benzo[1,4]dioxin-6-ylmethyl)-amino]-methyl}-cyclohexanecarboxylic acid (2-methoxy-quinolin-8-yl)-amide], at most 2 µg/mL; with `COc1ccc2ncc(Cl)c(C(O)CN3C4CCC3CC(NCc3ccc5c(c3)OCO5)C4)c2c1` (single isomer, unassigned) [Example 61, 2-{3-[(Benzo[1,3]dioxol-5-ylmethyl)-amino]-8-aza-bicyclo[3.2.1]oct-8-yl}-1-(3-chloro-6-methoxy-quinolin-4-yl)-ethanol], at most 2 µg/mL.
On to `COc1cnc2cccc(C(O)CN3C4CCC3CC(NCc3ccc5c(c3)NC(=O)CS5)C4)c2n1` (stereo not shown) [Example 85, 6-({8-[2-Hydroxy-2-(3-methoxy-quinoxalin-5-yl)-ethyl]-8-aza-bicyclo[3.2.1]oct-3-ylamino}-methyl)-4H-benzo[1,4]thiazin-3-one], for which the minimum inhibitory concentration (MIC) is at most 2 µg/mL.
Under `COc1ccc2ncc(Cl)c(C(O)CN3CCCC(CNCc4ccc5c(c4)NC(=O)CS5)C3)c2c1` (single isomer, unassigned) [Example 68, 6-[({1-[2-(3-Chloro-6-methoxy-quinolin-4-yl)-2-hydroxy-ethyl]-piperidin-3-ylmethyl}-amino)-methyl]-4H-benzo[1,4]thiazin-3-one] stands at most 2 µg/mL; under `COc1ccc2ncc(Cl)c(C(O)CN3C4CCC3CC(NCc3ccc5c(c3)OCCO5)C4)c2c1` (single isomer, unassigned) [Example 62, 1-(3-Chloro-6-methoxy-quinolin-4-yl)-2-{3-[(2,3-dihydro-benzo[1,4]dioxin-6-ylmethyl)-amino]-8-aza-bicyclo[3.2.1]oct-8-yl}-ethanol], at most 2 µg/mL.

Values taken from patent US20070244103A1, “Novel Compounds Having an Anti-Bacterial Activity” (Morphochem Aktiengesellschaft Fur Kombinatorische Chemie, priority 2004, published 2007).
